Data published in publication PMC8348110, “A Novel Peptide Derived from the Transmembrane Domain of Romo1 Is a Promising Candidate for Sepsis Treatment and Multidrug-Resistant Bacteria” (International Journal of Molecular Sciences, 2021).
≈ marks a conversion by molar mass, not a printed value. Residues, ends and D or L forms follow the SMILES beside them.

Key:
P. aeruginosa = conditions: mouse, iv, 40 mg/kg
Method: Figure 4 The antibacterial activity of AMPR-22 in various physiological conditions. (A,B) Effects of AMPR-22 activity in mouse plasma and human serum. AMPR-22 was incubated with blood components for the indicated times (0, 15, 30, 60, 90, 120, 150, and 180 min) and then with P. aeruginosa or S. aureus for an hour. (C,D) Effects of AMPR-22 activity in low-density lipoprotein (LDL), high-density lipoprotein (HDL), and bovine serum albumin. AMPR-22 was incubated with blood components for the indicated times (0, 30, 60, 120, and 180 min) and then with P. aeruginosa or S. aureus for an hour. (E) Effects of AMPR-22 activity in whole blood. AMPR-22 was incubated with mouse and human whole blood for the indicated times (0, 30, 60, 90, 120, and 180 min) and then with P. aeruginosa for an hour. (F,G) The antibacterial activity of AMPR-22 in vivo. […] (F) The relative CFU in blood samples was calculated using the following formula: CFU at indicated time ÷ CFU at 0 min × 100 (%). […] The antibacterial activity was measured using a colony-forming unit assay. […]
(§1) We used the CFU counting method to measure antibacterial activity, with all bacteria cultured to the mid-log phase in an appropriate broth medium. Bacterial CFUs were counted after overnight culture at 37 °C on TS or LB agar plates. The MBC value and antibacterial activity in blood components were determined as previously described. […]

[1] = test system: P. aeruginosa or S. aureus; format: in vitro ADME
Method: Figure 4 The antibacterial activity of AMPR-22 in various physiological conditions. (A,B) Effects of AMPR-22 activity in mouse plasma and human serum. AMPR-22 was incubated with blood components for the indicated times (0, 15, 30, 60, 90, 120, 150, and 180 min) and then with P. aeruginosa or S. aureus for an hour. (C,D) Effects of AMPR-22 activity in low-density lipoprotein (LDL), high-density lipoprotein (HDL), and bovine serum albumin. AMPR-22 was incubated with blood components for the indicated times (0, 30, 60, 120, and 180 min) and then with P. aeruginosa or S. aureus for an hour. (E) Effects of AMPR-22 activity in whole blood. AMPR-22 was incubated with mouse and human whole blood for the indicated times (0, 30, 60, 90, 120, and 180 min) and then with P. aeruginosa for an hour. (F,G) The antibacterial activity of AMPR-22 in vivo. AMPR-22 was intravenously administered into P. aeruginosa-infected mice, and blood was collected from the tail veins of the mice at the indicated times (0, 15, 30, 60, and 90 min). (F) The relative CFU in blood samples was calculated using the following formula: CFU at indicated time ÷ CFU at 0 min × 100 (%). (G) The relative CFU of blood samples obtained from F was re-graphed using the following formula: CFU of AMPR-22-treated mouse group ÷ CFU of control (PBS) group × 100 (%). (H) The functional half-life measurement of AMPR-22. AMPR-22 was intravenously administered into mice, and blood was collected at the indicated times (0, 5, 30, 60, 90, 120, 150, and 180 min). The blood was collected by cardiac puncture, and the plasma was isolated by centrifugation. Then, the plasma was incubated with P. aeruginosa for an hour. The antibacterial activity was measured using a colony-forming unit assay. […]
as §1

[2] = test system: Carbapenem-resistant A. baumannii, clinical isolate; format: cell-based, Acinetobacter baumannii; conditions: 1 h
Excerpt: (§2) Acinetobacter baumannii (ATCC 19606), B. subtilis (ATCC 6633), E. aerogenes (ATCC 13048), E. coli (ATCC 25922), E. faecalis (ATCC 19433), E. faecium (ATCC 19434), K. pneumoniae (ATCC 13883), P. aeruginosa (ATCC 27853), S. aureus (ATCC 29213), S. sindenensis (ATCC 23963), and MRSA (ATCC 33591) were purchased from the American Type Culture Collection (ATCC; Gaithersburg, MD, USA). Streptococcus pneumoniae (NCCP 14585), vancomycin-resistant E. faecium (NCCP 11522), and vancomycin-resistant S. aureus (NCCP 15872) were purchased from the National Culture Collection for Pathogens (NCCP; Cheongju, Korea). The isolation and use of carbapenem-resistant bacterial strains from a patient were approved (2015AN0129) by the Institutional Review Board (IRB) of Korea University Hospital. […]
(§3) The minimum bactericidal concentration (MBC) was determined as previously described with minor modifications. […] The value of MBC was determined at the lowest concentrations at which no colonies were identified.
as §1

[3] = test system: Vancomycin-resistant E. faecium NCCP 11522; format: cell-based, Enterococcus faecium; conditions: Vancomycin-resistant NCCP 11522, 1 h
Method: The minimum bactericidal concentration (MBC) was determined as previously described with minor modifications. Briefly, bacteria were cultured in the mid-log phase and diluted to 5 × 10^5 colony-forming unit (CFU)/mL in 10 mM sodium phosphate buffer (pH 7.4) with a 1% volume of TS broth. They were incubated for 1 h with various peptides which were two-fold diluted serially from 64 μg/mL to 0 μg/mL concentrations in a 96-well plate. The samples were inoculated TS agar plate and incubated overnight at 37 °C. The value of MBC was determined at the lowest concentrations at which no colonies were identified.
We used the CFU counting method to measure antibacterial activity, with all bacteria cultured to the mid-log phase in an appropriate broth medium. Bacterial CFUs were counted after overnight culture at 37 °C on TS or LB agar plates. The MBC value and antibacterial activity in blood components were determined as previously described. Mouse and human whole blood were collected and diluted with PBS (pH 7.4) to measure the ex vivo antibacterial activity of AMPR-22. For that test, AMPR-22 (10 μg) was added to each whole blood solution and incubated at 37 °C with shaking at 200 rpm. At each time point, it was incubated with bacteria (1 × 10^3 CFU) for 30 min. Each sample was inoculated on an LB agar plate, and CFU counting was performed. […]

[4] = test system: Carbapenem-resistant K. pneumoniae, clinical isolate; format: cell-based, Klebsiella pneumoniae; conditions: 1 h
Excerpt: as §2, §3, §1

## CC[C@H](C)[C@H](NC(=O)CNC(=O)CNC(=O)[C@@H](NC(=O)[C@H](C)NC(=O)[C@H](CCSC)NC(=O)[C@H](Cc1ccccc1)NC(=O)[C@@H](NC(=O)CNC(=O)[C@H](Cc1ccccc1)NC(=O)[C@H](CCCCN)NC(=O)CNC(=O)CNC(=O)[C@H](CCCCN)NC(=O)[C@H](CCCCN)NC(=O)[C@H](CCSC)NC(=O)[C@H](CCSC)NC(=O)[C@H](CCCCN)NC(=O)[C@@H](N)CCCCN)[C@@H](C)O)[C@@H](C)CC)C(=O)N[C@@H](CCCNC(=N)N)C(=O)O [AMPR-22] (H-KKMMKKGGKFGTFMAIGGIR-OH)
P. aeruginosa; in vivo
  Antibacterial activity maintained 37 min after peptide injection: more than 50%
P. aeruginosa
  Functional half-life in vivo: around 37 min
[1]
  Antibacterial activity in presence of human LDL, HDL or bovine serum albumin: not affected
  Functional half-life in vitro: around 90 min
  Half-life of antibacterial activity in mouse plasma and human serum: longer than that of AMPR-11
[2]
  MBC Value, Carbapenem-resistant A. baumannii: 1 µg/mL (≈ 0.457 µM)
[3]
  MBC Value, Vancomycin-resistant E. faecium: 4 µg/mL (≈ 1.83 µM)
[4]
  MBC Value, Carbapenem-resistant K. pneumoniae: 4 µg/mL (≈ 1.83 µM)
